Results published in publication PMC11589101, “Profiling the endocrine-disrupting properties of triazines, triazoles, and short-chain PFAS” (Toxicological Sciences, 2024).

Tests used:
[1] = tested on: thyroid hormone receptor (TR); experiment: TR-Luc reporter gene assay, antagonism (coexposure with 110 pM T3); type: cell-based; details: for TR antagonism % max combined: coexposure with 110 pM T3; for IC50 / TR antagonism IC10: GH3.TRE cells, coexposed with 110 pM T3, 24 h
[2] = target: T1, human transthyretin (TTR) (Homo sapiens, UniProt P02766); experiment: FITC-T4 TTR-binding assay, initial (original) method; details: for IC10 competing with FITC-T4 for binding to TTR: initial method, 110 nM FITC-T4, 30 nM TTR
Protocol: (§1) All incubations were performed at room temperature.
(§2) Fluorescence enhancement was determined for each well by subtracting its relative fluorescence units (RFU) before TTR addition from its RFUs after TTR addition. The resulting values were normalized to percentages of the vehicle control. A concentration–response curve was fitted through the data using the same model as in the reporter gene assays.
After 15 min of incubation, fluorescence was measured and fluorescence enhancement was calculated by subtracting RFU without TTR from RFU with TTR. Further data analysis was similar to the screening assays.

[3] = target: T1, human transthyretin (TTR); experiment: FITC-T4 TTR-binding assay, screening method
Protocol: as §1
In the screening tests, 48 μl of Tris-HCl buffer (pH 8.0) was added to each well of black low-binding 96-well plates. Two microliters of each test compound dissolved in their respective solvent was added to each well and the plate was shaken at 600 rpm for 5 min. […] Fluorescence was measured again to check for possible autofluorescence or quenching by the test compound.
as §2

[4] = tested on: steroidogenesis in H295R cells; type: cell-based, human; details: 48 h; for effect on steroid hormone levels compared with vehicle-treated controls / increased levels of 17α-OH-progesterone compared with vehicle-treated controls: highest noncytotoxic exposure concentration; for increased levels of progesterone and 17α-OH-progesterone compared with vehicle-treated controls: H295R
Protocol: (§3) All experiments were performed using cells in passages 5 to 10. First, the highest noncytotoxic concentration (<10% decrease in viability) was determined for each compound with MTT assays. Next, the levels of 13 steroid hormones were determined in the medium after exposure of the H295R cells to the highest noncytotoxic concentration using LC-MS/MS. These concentrations were tested in triplicate (n = 3) in 3 independent experiments (N = 3), and all 9 samples were measured in LC-MS/MS. […] These dilution series were tested in 3 independent experiments (N = 3), with triplicate exposures in each of these experiments (n = 3). Supernatants of the triplicate exposures per experiment were pooled after the 48 h of exposure and the 3 pooled samples were measured with LC-MS/MS. This was done to keep the number of LC-MS/MS measurements manageable.
The exposure medium was prepared by diluting stock solutions 1,000× in the cell culture medium to obtain a final concentration of 0.1% of the solvent. Exposure was started by replacing cell culture medium with the exposure medium. […] On a separate quality control plate, cells were exposed to 10 μM forskolin (Sigma-Aldrich) and 1 μM prochloraz (Sigma-Aldrich) to serve as positive control for increased and decreased steroid hormone secretion, respectively. Exposure was started by replacing the culture medium in the cell culture plates with the exposure medium.
(§4) After 48 h of exposure, the supernatant medium from each well was transferred to the wells of a clean 48-well plate, and that plate was stored at −80 °C for later steroid measurement. MTT assays were performed by adding 500 μl of 0.5 mg/ml MTT (3-(4,5-dimethylthiazol-2-yl)-2,5-diphenyltetrazolium bromide; Sigma-Aldrich) solution in medium to each well of the 24-well cell culture plate and incubating for 1 h at 37 °C with 5% CO2. After incubation, the MTT solution was discarded and 500 μl of DMSO was added to each well to lyse the cells and dissolve the formazan crystals. Plates were shaken at 700 rpm for 10 min and absorbance was measured at 560 nm wavelength.
Hormones were concentrated from supernatants by solid phase extraction using Bond Elut Plexa cartridges, 30 mg sorbent, 1.8 ml (Agilent Technologies, Santa Clara, CA, United States). The cartridges were conditioned with 1 ml of 0.5% formic acid in methanol, and subsequent addition of 1 ml of 0.5% formic acid in water. A mix of 100 μl of H295R medium sample in 1 ml of 2% formic acid in water and 50 μl of isotopically labeled internal standards mix (Table S1) was loaded on the cartridges. These were then washed with 1 ml of water followed by 1 ml of water–methanol mixture (70:30, v/v). Cartridges were dried by vacuum and the hormones were eluted with 700 μl of methanol into 96-well-deep well polypropylene plates. Eluates were evaporated to dryness during approximately 2 h in a refrigerated CentriVap vacuum concentrator and reconstituted in 150 μl of water–methanol mixture (1:1, v/v). Additionally, a serial 12-point dilution series of a mix of native steroid hormones was prepared to fit a calibration curve in order to quantify steroid concentrations.
The steroid hormones were separated prior to MS measurements on a Kinetex C18 LC Column (2.6 μm, 100 × 2.1 mm; Phenomenex, CA, United States) coupled to an Exion LC system (SCIEX, Framingham, MA, United States). The mobile phase consisted of 0.2 mM NH4F in water and pure methanol and was delivered at a flow rate of 0.6 ml/min in a gradient elution mode. The injection volume was 10 μl.
The LC-MS/MS raw data were processed using AB Sciex OS Analyst version 1.6.2 (SCIEX, Framingham, MA, United States) to calculate fold changes by dividing the measured hormone concentrations by the hormone concentrations in the vehicle controls. The fold changes were used to fit a concentration–response curve in GraphPad Prism using the same model as in the reporter gene assays, and the ECIR1.5 was estimated for each compound.

[5] = tested on: VM7Luc4E2 cells; experiment: Resazurine cell viability assay in VM7Luc4E2 cells; type: cell-based, human; details: 24 h
[6] = tested on: AR-Ecoscreen-GR-KO M1 cells; experiment: Resazurine cell viability assay in AR-Ecoscreen-GR-KO M1 cells; details: 24 h
Protocol: The cell culture medium was discarded and replaced with 100 μl of fresh assay medium. […] Exposure conditions (24 h; 37 °C; 5% CO2), resazurine assay, and luciferase measurements were similar to described for the VM7Luc4E2 cells.

[7] = tested on: GH3.TRE cells; experiment: Resazurine cell viability assay in GH3.TRE cells
Protocol: Exposure medium was added to the cells immediately after seeding. […] Exposure conditions, resazurine assay, and luciferase measurements were similar as described for the VM7Luc4E2 cells.

[8] = tested on: H295R cells; experiment: MTT cell viability assay in H295R cells; type: cell-based, human; details: 48 h; for highest exposure concentration with <10% decrease in cell viability: H295R cells; for decrease in cell viability at highest exposure concentration: 25 μM
Protocol: as §3, with “For the H295R assay, the culturing and exposure of cells were performed according to OECD Test Guideline No. 456 ([OECD 2011]). All” for “All”
as §4, with “wavelength. Concentrations causing >10% decrease in cell viability were excluded from the hormone analysis, and test compounds were retested at a lower concentration.” for “wavelength.”

Structure (SMILES) | TR antagonism % max combined ([1]; 0.3 uM) [%] | TR antagonism % max combined ([1]; 1 uM) [%] | TR antagonism % max combined ([1]; 3 uM) [%] | TR antagonism % max combined ([1]; 10 uM) [%] | IC50 [1] [µM] | TR antagonism IC10 [1] [µM] | effect on steroid hormone levels compared with vehicle-treated controls [4] | increased levels of 17α-OH-progesterone compared with vehicle-treated controls [4] | highest exposure concentration with <10% decrease in cell viability [8] [µM] | increased levels of progesterone and 17α-OH-progesterone compared with vehicle-treated controls [4] | cytotoxicity in the resazurine assay ([6]; 100 μM) | cytotoxicity ([7]; 100 μM) | cytotoxicity ([7]; rat, 24 h, 100 μM) | further results
CC1COC(Cn2cncn2)(c2ccc(Oc3ccc(Cl)cc3)cc2Cl)O1 (stereo not drawn) [Difenoconazole] | 100.42 | 84.26 | 56.28 | 27.83 | 4.1 | 0.64 | no effect on androgen levels, but showed decreased levels of corticosteroids | more than 8 fold | 3 |  |  |  |  | IC50 [2]: 38.5 µM; % FITCT4 bound to TTR ([2]; 0.1 uM): 94.3698%; % FITCT4 bound to TTR ([2]; 0.3 uM): 86.9998%; % FITCT4 bound to TTR ([2]; 1 uM): 84.4625%; % FITCT4 bound to TTR ([2]; 3 uM): 79.4508%; % FITCT4 bound to TTR ([2]; 10 uM): 60.3391%; % FITCT4 bound to TTR ([2]; 30 uM): 47.2598%; % FITCT4 bound to TTR ([2]; 100 uM): 44.9874%; IC10 competing with FITC-T4 for binding to TTR [2]: 0.23 µM; IC50 [3]: 22 µM; decrease in viability ([5]; 30 and 100 μM): more than 10%; cytotoxicity in the resazurine assay ([6]; 30 and 100 μM): significant cytotoxicity; cytotoxicity ([7]; 30 and 100 μM): More than 10%
CC(C)(C)C(O)(CCc1ccc(Cl)cc1)Cn1cncn1 (stereo not drawn) [Tebuconazole] |  |  |  |  |  |  | increased levels of progesterone and decreased levels of androgens, estrogens, and corticosteroids |  | 30 | up to 3.5 fold | significant cytotoxicity | More than 10% |  | 
Nc1nc(N)[nH]c(=O)n1 [Ammeline] |  |  |  |  |  |  |  |  |  |  |  |  |  | decrease in cell viability at highest exposure concentration [8]: ≤ 10%
N#CC(CCc1ccc(Cl)cc1)(Cn1cncn1)c1ccccc1 (stereo not drawn) [Fenbuconazole] |  |  |  |  |  |  | decreased levels of androgens, estrogens, and corticosteroids | more than 8 fold |  |  | significant cytotoxicity |  |  | decrease in viability ([5]; 100 μM): more than 10%; cytotoxicity ([7]; 30 and 100 μM): More than 10%
CC(C)(C)C(O)C(Oc1ccc(-c2ccccc2)cc1)n1cncn1 (stereo not drawn) [Bitertanol] |  |  |  |  |  |  | decreased levels of androgens |  |  |  | significant cytotoxicity | More than 10% |  | IC50 [2]: 62.7 µM; % FITCT4 bound to TTR ([2]; 0.1 uM): 93.4196%; % FITCT4 bound to TTR ([2]; 0.3 uM): 88.4453%; % FITCT4 bound to TTR ([2]; 1 uM): 84.7037%; % FITCT4 bound to TTR ([2]; 3 uM): 79.29%; % FITCT4 bound to TTR ([2]; 10 uM): 64.391%; % FITCT4 bound to TTR ([2]; 30 uM): 52.4704%; % FITCT4 bound to TTR ([2]; 100 uM): 49.6904%; IC10 competing with FITC-T4 for binding to TTR [2]: 0.22 µM; IC50 [3]: 20.5 µM; decrease in viability ([5]; 100 μM): more than 10%
CC(C1CC1)C(O)(Cn1cncn1)c1ccc(Cl)cc1 (stereo not drawn) [Cyproconazole] |  |  |  |  |  |  | increased levels of progesterone and decreased levels of androgens, estrogens, and corticosteroids |  |  | up to 3.5 fold |  |  | More than 10% | 
CC(C)(C)C(O)C(Oc1ccc(Cl)cc1)n1cncn1 (stereo not drawn) [Triadimenol] | 102.48 | 98.41 | 105.58 | 76.69 | 21.3 | 6.3 | decreased estrogen and corticosteroid levels |  |  |  |  |  | More than 10% | TR antagonism % max combined ([1]; 30 uM): 36.13%
CCCC1COC(Cn2cncn2)(c2ccc(Cl)cc2Cl)O1 (stereo not drawn) [Propiconazole] | 96.03 | 99.85 | 100.91 | 76.92 | 20.1 | 6.1 | no effect on androgen levels, but showed decreased levels of corticosteroids | more than 8 fold |  |  | significant cytotoxicity | More than 10% |  | TR antagonism % max combined ([1]; 30 uM): 33.08%
NC(Cn1cncn1)C(=O)O (stereo not drawn) [Triazole alanine] |  |  |  |  |  |  |  |  |  |  |  |  |  | decrease in cell viability at highest exposure concentration [8]: ≤ 10%
FC(F)C(F)(F)OCC(Cn1cncn1)c1ccc(Cl)cc1Cl (stereo not drawn) [Tetraconazole] |  |  |  |  |  |  | increased levels of progesterone and decreased levels of androgens, estrogens, and corticosteroids |  | 30 | up to 3.5 fold |  |  | More than 10% | 
